Assay [1] has as its target T1, Protein S100-B (Homo sapiens) (UniProt P04271).
T1 sequence (whole entry): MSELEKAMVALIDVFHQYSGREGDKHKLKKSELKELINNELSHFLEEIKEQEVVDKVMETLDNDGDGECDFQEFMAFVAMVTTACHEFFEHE
In words: Inhibition of human S100B/humanTAMRA-p53(367-388) interaction assessed as inhibition rate at 50 uM by fluorescence polarization assay.

Assay [2] addresses T2, Protein S100-B (Homo sapiens, UniProt P04271).
T2 sequence (P04271 whole entry): T1 sequence (whole entry)
Nature of the assay: Inhibition of human S100B/human TAMRA-p53(367-388) interaction by fluorescence polarization assay.

The target of assay [3] is T1, Protein S100-B (Homo sapiens). In words: Inhibition of human S100B/humanTAMRA-p53(367-388) interaction assessed as inhibition rate at 93 uM by fluorescence polarization assay.
For assay [4], the system named is WM-115. In words: Cytotoxicity against human WM115 cells assessed as growth inhibition measured after 72 hrs by crystal violet assay. The format is functional, cell-based. Conditions: WM-115, 72 h.
The target in assay [5] is T1, Protein S100-B (Homo sapiens). Nature of the assay: Inhibition of human S100B/humanTAMRA-p53(367-388) interaction by In situ proximity ligation assay.

The source made the active and inactive calls. No cut-off for these calls is given here.

For the compound `Nc1ccc(N2CCNCC2)cc1`, the inhibition in assay [1] is below 50%.
`COc1ccc(/C=N/c2ccc(O)cc2)cc1` had an IC50 in assay [2] of 36.3 µM.
Turning to `N=C(N)c1ccc(OCCCCCOc2ccc(C(=N)N)cc2)cc1` [PENTAMIDINE], the figures for the IC50 in assay [2] and in assay [4] were above 100 µM and 4.8 µM, respectively. Further, in assay [3], the inhibition came out at 14.2%.
`CN1CCN(c2ccc(N)c(N3CCN(C)CC3)c2)CC1`: in assay [1], the inhibition was below 50%.
Consider `CCN(CC)c1ccc(N)c(C)c1`, for which, in assay [2], the IC50 came out at 8.4 µM and the inhibitory constant (Ki) came out at 5 µM. In addition, the IC50 in assay [4] was 8.5 µM.
In assay [2], `Nc1cc(N2CCCCC2)ccc1N1CCCCC1` displayed an IC50 of 31.5 µM and an inhibition constant Ki of 25.1 µM. Moreover, the IC50 in assay [4] is 36.4 µM.
For `Nc1ccc(N2CCCCC2)cc1N1CCCCC1`, the half-inhibitory concentration (IC50) worked out at 2 µM in assay [2] and 4.9 µM in assay [4]. Further, the Ki in assay [2] is below 1 µM. The inhibition entry in assay [5] was “Active”.

Source of the values: ChEMBL document CHEMBL2331198, “Identification of small-molecule inhibitors of the human S100B-p53 interaction and evaluation of their activity in human melanoma cells” (Bioorg Med Chem, 2013).
